Source: patent publication US11191768B2, “Histone acetyltransferase activators and uses thereof” (The Trustees of Columbia University in the City of New York, priority 2014, dated 2021)

Key:
[1] = cited from earlier work
YAC128 mice = assay: Accelerating rotarod in the YAC128 Huntington disease model; format: in vivo; details: YF2 5 mg/kg i.p. daily from age 2 months
Method: HAT activator YF2 (U.S. patent application Ser. No. 13/493,490; herein incorporated by reference in its entirety) was tested in the YAC128 Huntington disease model. Animals were treated with YF2 (5 mg/kg, i.p, daily) or vehicle, starting at the age of 2 months.

Structure (SMILES)	Solubility [1]	Rotarod performance of YF2-treated YAC128 mice versus WT mice (YAC128 mice; female mice, 6 months of age, vs WT+YF2 p=0.12734, vs WT+vehicle p=0.1690)	Rotarod performance of YF2-treated YAC128 mice versus WT mice (YAC128 mice; male mice, 4 month old, vs WT+YF2 p=0.1946, vs WT+vehicle p=0.0792)
CCOc1ccccc1C(=O)Nc1ccc(Cl)c(C(F)(F)F)c1 [CTB]	insoluble		
CCCCCCCCCCCCCCCc1cccc(OCC)c1C(=O)Nc1ccc(Cl)c(C(F)(F)F)c1 [CTPB]	insoluble		
CCOc1cccc(OCCN(C)C)c1C(=O)Nc1ccc(Cl)c(C(F)(F)F)c1 [YF2]		significance was lost	significance was lost
